{"source": "patent US7371864B2", "about": "“Crystalline forms of a factor Xa inhibitor” (Bristol-Myers Squibb Company, priority 2004, dated 2008)", "key": {"[1]": {"assay": "Moisture sorption isotherms (VTI SGA-100 Symmetric Vapor Analyzer)", "format": "physicochemical", "conditions": "25° C., 4-95% RH", "method": "Moisture sorption isotherms for N-1 were collected in a VTI SGA-100 Symmetric Vapor Analyzer using about 10 mg sample. The sample was dried at 60° C. until the loss rate of 0.0005 wt %/min was obtained for 10 minutes. The sample was tested at 25° C. and 4, 5, 15, 25, 35, 45, 50, 65, 75, 85, and 95% RH. Equilibration at each RH was reached when the rate of 0.0003 wt %/min for 35 minutes or a maximum of 600 minutes was achieved."}, "[2]": {"assay": "Relative thermodynamic stability of crystalline forms", "format": "physicochemical"}}, "data": [{"smiles": "COc1ccc(-n2nc(C(C)(C)O)c3c2C(=O)N(c2ccc(-n4ccccc4=O)cc2)CC3)cc1", "note": "[Form N-1, 3-(1-hydroxy-1-methyl-ethyl)-1-(4-methoxy-phenyl)-6-[4-(2-oxo-2H-pyridin-1-yl)-phenyl]-1,4,5,6-tetrahydro-pyrazolo[3,4-c]pyridin-7-one]", "values": [{"measurement": "hygroscopicity from moisture sorption isotherms", "setting": "[1]", "result": "essentially non-hygroscopic"}, {"measurement": "stability relative to Form N-3 (monotropic relationship)", "setting": "[2]; all temperatures, inferred from Form N-3 melting ˜40° C. lower than Form N-1", "result": "more stable at all temperatures"}, {"measurement": "thermodynamic stability relative to other crystalline forms", "setting": "[2]; room temperature", "result": "thermodynamically more stable form"}]}]}
